“Also recorded” adds a separate entry of the source.
Legend:
TNF-α [1] = assay: In vitro inhibition of TNF-α (LPS-stimulated J774 macrophages, ELISA of supernatant); assay type: cell-based; details: mice macrophage cell line J774, 1 μg/mL LPS, compound 10 μM, 5 hours
Experimental: The horizontal axis indicates the compound numbers corresponding to the examples, and the vertical axis indicates the inhibition rate (IR) of TNF-α. The concentration used in the assays is 10 μM.
In vitro inhibition of TNF-α: inoculate 48 well plates with mice macrophase cell line J774, at 1×10^5 cells/well. Incubate in DMEM containing 10% FBS under 6% CO2 for 12 hours. Use DMEM medium containing 1 μg/mL LPS to dilute the small molecule compounds to a final concentration of 10^−5 mol/L and use that to replace the original culture medium. The incubation is continued for another 5 hours. Collect the supernatants and determine TNF-α using ELISA. In this experiment, compound SB 202190 (4-(4-fluorophenyl)-2-(4-hydroxyphenyl)-5-(4-pyridyl)-1H-imidazole, CAS 152121-30-7, was purchased from Sigma. This compound is a specific inhibitor of p38 MAPK. Through inhibition of p38 phosphorylation, it inhibits the production of TNF-α) is used as a positive control.

TNF-α [2] = assay: LPS-induced endotoxin shock model, plasma TNF-alpha by ELISA; assay type: in vivo; details: male C57BL/6 mice, 25, 50, 100 mg/Kg injected peritoneally 1 hour before LPS 2.5 mg/Kg; blood 1.5 hours after LPS
Excerpt: The horizontal axis indicates the compound numbers corresponding to the examples or the amount of Compound 1 used in mg/Kg of mouse body weight. The vertical axis indicates the concentrations of TNF-α.
Materials: C57BL/6 mice (6-8 week old) are purchased from Shanghai Laboratory Animal Center (SLAC). Animals are kept, with sufficient water and standard diets, in the Laboratory Animal Center (clean room) in the Institute of Biochemistry and Cell Biology at the Shanghai Institute for Biological Sciences, Chinese Academy of Sciences.
Lipopolysaccharides (LPS) was purchased from Sigma (St. Louis, Mo.) was dissolved in sterile physiological saline and aliquots are stored at −70° C. (The LPS used in the cell testing has a catalog No. L4391, and used in animal testing has a catalog No. L3129.)
Cytokine (TNF-alpha) ELISA test kit (Catalog No. MTA00) was purchased from R&D Co.
Steps: (1) 6-8 week old male C57BL/6 mice are randomly grouped in 5 mice per group for use in endotoxin model tests;
(2) weigh each mouse, and inject peritoneally 200 μL different concentrations of small molecule Compound 1 in physiological saline (the injection doses for the low, medium, and high groups are respectively 25 mg/Kg, 50 mg/Kg, and 100 mg/Kg body weight). The control group was injected with 200 μL physiological saline; […]

SMILES | inhibition rate (IR) of TNF-α / anti-inflammatory activity (FIG. 1) (TNF-α [1]; 10 µM) | melting point | inhibition rate (IR) of TNF-α / anti-inflammatory activity (FIG. 1) (TNF-α [1]) | effect on pro-inflammatory cytokine TNF-α level in plasma (FIG. 3) (TNF-α [2])
COC1=CC2[C@@H]3[C@H](OC)c4ccc(OC)c(O)c4[C@]2(CCN3C)CC1=O (stereo partly drawn) [Compound 33, 10β-methoxysinomenine] | TNF-α stimulating effects; also recorded: TNF-α stimulatory activities | 201 to 203 °C (dec.) | – | –
COC1=CC2[C@@H]3[C@H](Sc4ccc(C(C)(C)C)cc4)c4ccc(O)c(O)c4[C@]2(CCN3C)CC1=O (stereo partly drawn) [Compound 8] | – | 232 to 233 °C (dec.) | apparent activities | –
COC1=CC2[C@@H]3[C@H](OC(C)=O)c4ccc(OC(C)=O)c(OC(C)=O)c4[C@]2(CCN3C)CC1=O (stereo partly drawn) [Compound 31] | – | 198 to 199 °C | apparent activities | –
COC1=CC2[C@@H]3C(=O)c4ccc(OC)c(OC(C)=O)c4[C@]2(CCN3C)C[C@@H]1O (stereo partly drawn) [Compound 39] | – | – | apparent activities | –
COC1=CC2[C@@H]3[C@H](Sc4ccccc4)c4ccc(O)c(O)c4[C@]2(CCN3C)CC1=O (stereo partly drawn) [Compound 4] | – | 210 to 212 °C (dec.) | apparent activities | –
COC1=CC2[C@@H]3[C@H](OC)c4c(CO)cc(OC)c(O)c4[C@]2(CCN3C)CC1=O (stereo partly drawn) [Compound 35, 1-hydroxymethyl-10β-methoxysinomenine] | TNF-α stimulating effects; also recorded: TNF-α stimulatory activities | – | – | –
COC1=CC2[C@@H]3[C@H](OC(C)=O)c4c(CO)cc(OC)c(O)c4[C@]2(CCN3C)CC1=O (stereo partly drawn) [Compound 34, 1-hydroxymethyl-10β-acetoxysinomenine] | TNF-α stimulating effects; also recorded: TNF-α stimulatory activities | – | – | –
COC1=C[C@@H]2[C@@H]3[C@H](Sc4ccc(C)cc4)c4ccc(O)c(O)c4[C@]2(CCN3C)CC1=O [Compound 1] | – | 224 to 225 °C (dec.) | apparent activities | substantial inhibitory effect; also recorded: dose dependent
COC1=CC2[C@@H]3C(=O)c4ccc(OC)c(OC(C)=O)c4[C@]2(CCN3C)C[C@H]1O (stereo partly drawn) [Compound 40] | – | – | apparent activities | –
